Measurements: patent publication US7521439B2, “Glucocorticoid receptor ligands for the treatment of metabolic disorders” (Karo Bio AB, priority 2002, dated 2009)
Read-outs that look alike come from different tables or passages of the source.

Assays:
GR-mediated responses = assay: Rat prednisolone challenge model (hepatic TAT, hepatic glycogen, blood lymphocytes); format: in vivo; conditions: for inhibition at 100 mg/kg: Rattus norvegicus, Lymphocyte, po, 100 mpk orally in rats, prednisolone challenge
Source text: The analysis of both in vivo activity and liver selectivity may be accomplished using a single pharmacology study, involving a prednisolone challenge administered to rats.
Systemic glucocorticoid activity leads to an anti-inflammatory response, which is the result of a GR-linked suppression of lymphocytic activity.
Rat Prednisolone Challenge Model for Evaluation of Liver-Targeted Glucocorticoid Receptor Antagonists
Six hours following the prednisolone challenge, rats are euthanized with CO2, and bled via cardiac puncture for evaluation of blood lymphocytes and plasma drug levels. 7 mm liver biopsy punches are harvested for evaluation of tyrosine aminotransferase (TAT), hepatic glycogen and GR antagonist levels. Additional liver tissue, retroperitoneal fat, skeletal muscle, kidney and skin from an ear biopsy are also removed for isolation an evaluation of mRNA.

HPA axis = assay: Mouse hypothalamic-pituitary-adrenal (HPA) activation model; format: in vivo; conditions: for circulating level of ACTH / circulating level of corticosterone: oral dose, normal mice (FIG. 3)
Source text: Hypothalamic stimulation triggered by a suppressed systemic glucocorticoid leads to the secretion of adrenocorticotrophic hormone (ACTH) by the pituitary gland. ACTH acts on the adrenal gland to stimulate the production of endogenous glucorticoids like cortisol (in man) or corticosterone (in rodents). […] Analogs like Compound 1 may thus have an improved efficacy and safety profile for the treatment of metabolic diseases like diabetes and obesity.
Mouse Hypothalamic-Pituitary-Adrenal (HPA) Activation Model
Non-fasted CD-1 male mice, weighing approximately 25 g, are dosed with vehicle, RU-486 (30-100 mg/kg), or GR antagonist (30-100 mg/kg) at 0800 hr when corticosterone levels are low. Two hours later, mice are euthanized with CO2, bled by cardiac puncture, and plasma analyzed for corticosterone by mass spectroscopy and for adrenocorticotropic hormone (ACTH) levels by ELISA. Brains and plasma are also removed for analysis of GR antagonist levels.

[1] = biological target: T1, Human glucocorticoid receptors (hGR) (Homo sapiens, UniProt P04150); assay: Radioligand filter binding assay, displacement of 3(H)-dexamethasone from human glucocorticoid receptor
T1 construct: made in house; host or cells: Sf9 insect cells, baculovirus (BAC-TO-BAC)
T1 sequence (P04150 1-777): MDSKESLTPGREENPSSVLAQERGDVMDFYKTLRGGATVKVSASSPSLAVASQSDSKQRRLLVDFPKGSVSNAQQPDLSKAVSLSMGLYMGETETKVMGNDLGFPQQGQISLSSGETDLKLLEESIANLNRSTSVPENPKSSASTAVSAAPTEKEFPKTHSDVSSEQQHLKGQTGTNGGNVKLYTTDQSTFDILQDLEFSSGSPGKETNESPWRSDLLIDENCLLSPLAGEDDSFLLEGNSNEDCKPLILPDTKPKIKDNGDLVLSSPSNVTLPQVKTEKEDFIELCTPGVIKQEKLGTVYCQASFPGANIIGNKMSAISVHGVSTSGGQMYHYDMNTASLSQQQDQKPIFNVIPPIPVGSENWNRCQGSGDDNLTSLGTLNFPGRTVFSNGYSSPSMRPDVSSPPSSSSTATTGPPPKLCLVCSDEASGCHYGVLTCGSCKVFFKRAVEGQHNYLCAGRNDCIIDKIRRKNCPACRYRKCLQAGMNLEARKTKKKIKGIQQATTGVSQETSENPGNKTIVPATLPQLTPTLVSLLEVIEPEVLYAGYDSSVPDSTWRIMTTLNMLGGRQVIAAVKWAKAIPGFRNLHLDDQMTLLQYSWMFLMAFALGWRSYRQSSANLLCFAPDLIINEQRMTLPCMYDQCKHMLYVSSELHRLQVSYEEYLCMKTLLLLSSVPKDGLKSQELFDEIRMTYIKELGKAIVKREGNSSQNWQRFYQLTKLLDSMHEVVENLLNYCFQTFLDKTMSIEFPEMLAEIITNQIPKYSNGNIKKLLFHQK
Source text: Methods for Radioligand Binding Studies with Human Glucocorticoid and Progesterone Receptor Cytosol
Dexamethasone hereafter referred to as dex was purchased from SIGMA. […] Human glucocorticoid receptors were extracted from Sf9 cells infected with a recombinant baculovirus transfer vector containing the cloned hGR genes. Recombinant baculovirus was generated utilizing the BAC-TO-BAC expression system (Life Technologies) in accordance to instruction from the supplier. The hGR coding sequences were cloned into a baculovirus transfer vector by standard techniques. The recombinant baculoviruses expressing hGR were amplified and used to infect Sf9 cells. Infected cells were harvested 48 hrs post infection. […] The concentration of hGR in the extract was measured as specific ^3(H)-dex binding with the G25-assay as described in J. Steroid Biochem. Molec. […] The extract was aliquoted and stored at −70° C.
The filter binding assay: Dilution series of the test compounds and dexamethasone as reference were made from 10 mM (1 mM dex) stock solutions in DMSO. 10 μl of the dilutions was added in duplicates to the wells. The cell extracts were diluted 10 fold in EPMo+MTG buffer (1 mM EDTA, HPO4 20 mM (pH8), 6 mM MTG). […] 110μl of the diluted ^3(H)-dex were added to the wells. The final concentration of hGR in the experiment was estimated to 1 nM. All preparations were made in […] on ice and with +4° C. temperated buffers. The plates were incubated overnight at +4° C. (15-20 hrs.).
The incubation was stopped by filtration through GF/B filter on the Tomtec Cellharvester. The filtration on the Tomtec Cellharvester was programmed as follows: 1) Preparation before filtration with EP buffer (1 mM EDTA 20 mM HPO4 (pH8)) 2×(Wash/Asp 0.6 sec., Asp 0.5 sec.); 2) Prewet of GF/B filter with EP+PEI buffer (EP buffer, 0.3% Polyethylenimine) (Asp 0.8 sec.); 3) Filtration/harvesting of the 96-well incubation plate 3×(Wash/Asp 0.6 sec., Asp 0.5 sec.). The GF/B filter was dried for at least 1 hr at 65° C. A MeltiLex scintillation wax was melted onto the filter with the Microsealer. The filter was placed in a samplebag, which was thereafter trimmed with scissors to fit the filter cassette. The cassette were placed in the Microbeta and measured for 1 min/position, returning ccpm (corrected counts per minute).
The Microbeta-instrument generates the mean cpm (counts per minute) value/minute and corrects for individual variations between the detectors thus generating corrected cpm values.

[2] = biological target: T2, progesterone receptor (PR) (Homo sapiens, UniProt P06401); assay: Radioligand binding assay for progesterone receptor (similar protocol); conditions: similar protocol to GR binding
T2 sequence (P06401 1-933): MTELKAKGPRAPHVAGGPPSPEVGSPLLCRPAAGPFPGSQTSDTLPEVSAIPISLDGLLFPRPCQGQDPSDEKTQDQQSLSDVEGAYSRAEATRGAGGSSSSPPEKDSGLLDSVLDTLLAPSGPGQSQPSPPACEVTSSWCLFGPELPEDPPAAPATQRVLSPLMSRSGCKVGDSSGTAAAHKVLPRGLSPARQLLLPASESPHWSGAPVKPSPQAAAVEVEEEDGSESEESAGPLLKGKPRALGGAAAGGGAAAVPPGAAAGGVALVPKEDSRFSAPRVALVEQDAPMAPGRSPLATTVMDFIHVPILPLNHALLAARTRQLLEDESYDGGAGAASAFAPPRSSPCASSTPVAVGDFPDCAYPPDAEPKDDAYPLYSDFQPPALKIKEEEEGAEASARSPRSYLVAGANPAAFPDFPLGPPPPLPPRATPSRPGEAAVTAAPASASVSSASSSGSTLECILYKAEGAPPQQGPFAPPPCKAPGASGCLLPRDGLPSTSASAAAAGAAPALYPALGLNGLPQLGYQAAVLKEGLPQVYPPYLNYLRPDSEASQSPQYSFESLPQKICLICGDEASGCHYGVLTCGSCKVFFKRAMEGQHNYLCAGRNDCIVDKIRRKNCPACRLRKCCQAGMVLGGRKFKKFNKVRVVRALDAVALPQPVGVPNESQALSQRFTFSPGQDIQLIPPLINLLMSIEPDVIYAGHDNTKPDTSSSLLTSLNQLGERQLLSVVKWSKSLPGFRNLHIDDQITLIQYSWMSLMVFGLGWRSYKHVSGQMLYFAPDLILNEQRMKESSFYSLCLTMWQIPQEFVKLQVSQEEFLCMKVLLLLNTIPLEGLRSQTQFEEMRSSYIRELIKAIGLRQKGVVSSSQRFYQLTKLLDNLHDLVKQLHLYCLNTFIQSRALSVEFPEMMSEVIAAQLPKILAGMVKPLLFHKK
Source text: Methods for Radioligand Binding Studies with Human Glucocorticoid and Progesterone Receptor Cytosol A similar protocol was employed to measure affinity of the compounds of the present invention for progesterone receptor (PR).

[3] = 10 mpk prednisolone, normal rats, 7-hour experiment
[4] = 30 mpk orally, rat prednisolone challenge
[5] = read-out: Inhibition of GR-mediated responses: Glycogen
[6] = read-out: Inhibition of GR-mediated responses: Lymphocytes
[7] = read-out: Inhibition of GR-mediated responses: TAT
[8] = rat prednisolone challenge, 100 mpk
[9] = 100 mpk, CD-1 male mice, two hours after dosing

Structure (SMILES) | inhibition at 100 mg/kg (GR-mediated responses; [5]) [%] | inhibition at 100 mg/kg (GR-mediated responses; [6]) [%] | inhibition at 100 mg/kg (GR-mediated responses; [7]) [%] | circulating level of ACTH (HPA axis) | circulating level of corticosterone (HPA axis) | IC50 [1] [nM] | IC50 [2] [nM] | further results
C[C@]12C=CC(=O)C=C1CC[C@@H]1[C@@H]2[C@@H](O)C[C@@]2(C)[C@H]1CC[C@]2(O)C(=O)CO [prednisolone] |  |  |  |  |  |  |  | circulating lymphocyte levels (GR-mediated responses; 10 mpk prednisolone, normal rats): decrease; increase in the deposition of hepatic glycogen (GR-mediated responses; [3]): ~60%; induction of tyrosine aminotransferase (TAT) (GR-mediated responses; [3]): 3 fold
CC#C[C@]1(O)CC[C@H]2[C@@H]3CCC4=CC(=O)CCC4=C3[C@@H](c3ccc(N(C)C)cc3)C[C@@]21C [RU-38486] | 74 | 108 | 100 | increases | increases |  |  | block of agonist effect on TAT induction (GR-mediated responses; [4]): completely blocks; block of lymphopenic response produced by prednisolone (GR-mediated responses; [4]): ability to block; suppression of prednisolone-induced deposition of hepatic glycogen (GR-mediated responses; [4]): completely suppressed; block of hepatic glucocorticoid responses to prednisolone (TAT, glycogen) (GR-mediated responses; [8]): completely antagonizes; effect on systemic (peripheral) glucocorticoid response to prednisolone (GR-mediated responses; [8]): completely antagonizes; ACTH level compared to vehicle controls (HPA axis; [9]): significantly increases; corticosterone level compared to vehicle controls (HPA axis; [9]): significantly increases
CC#C[C@]1(O)CC[C@H]2[C@@H]3CCC4=CC(=O)CCC4=C3[C@@H](c3ccc(OCCO[C@H]4CC[C@@]5(C)C(C4)C[C@@H](O)[C@H]4[C@@H]6CC[C@H]([C@H](C)CCC(=O)O)[C@@]6(C)[C@@H](O)C[C@@H]45)c(C)c3)C[C@@]21C (stereo partly drawn) [Example 2, (3β,7α,12α)-7,12-dihydroxy-3-(2-(4-(17β-hydroxy-3-oxo-17α-prop-1-ynylestra-4,9-dien-11β-yl)-2-methylphenoxy)ethoxy)cholan-24-oic acid] |  |  |  |  |  | 2.8 | 2.3 | 
CC#C[C@]1(O)CC[C@H]2[C@@H]3CCC4=CC(=O)CCC4=C3[C@@H](c3ccc(N(C)CCO[C@H]4CC[C@@]5(C)[C@@H](C4)C[C@@H](O)[C@@H]4[C@@H]5C[C@H](O)[C@]5(C)[C@@H]([C@H](C)CCC(=O)O)CC[C@@H]45)c(F)c3)C[C@@]21C [Example 3, (3β,5β,7α,12α)-7,12-dihydroxy-3-{2-[{4-[17β-hydroxy-3-oxo-17α-prop-1-ynylestra-4,9-dien-11β-yl]-2-fluorophenyl}(methyl)amino]ethoxy}cholan-24-oic acid] |  |  |  |  |  | 2 | 4.5 | 
CC#C[C@]1(O)CC[C@H]2[C@@H]3CCC4=CC(=O)CCC4=C3[C@@H](c3ccc(N(C)CCO[C@H]4CC[C@@]5(C)[C@@H](C4)C[C@@H](O)[C@@H]4[C@@H]5C[C@H](O)[C@]5(C)[C@@H]([C@H](C)CCC(=O)O)CC[C@@H]45)cc3)C[C@@]21C [Example 1, (3β,5β,7α,12α)-7,12-Dihydroxy-3-{2-[{4-[17β-hydroxy-3-oxo-17α-prop-1-ynylestra-4,9-dien-11β-yl]phenyl}(methyl)amino]ethoxy}cholan-24-oic acid] | 111 | 35 | 85 | lack of change | lack of change | 3.6 | 8.7 | selectivity for hepatic GR vs. systemic effects (GR-mediated responses; rat prednisolone challenge, doses as in Table I): liver-selective pharmacology; stimulation of the HPA axis (HPA axis; mice, dose similar to RU-38486 (FIG. 3)): fails to stimulate
CC#C[C@]1(O)[C@H](C)C[C@H]2[C@@H]3CCC4=CC(=O)CCC4=C3[C@@H](c3ccc(N(C)CCO[C@H]4CC[C@@]5(C)[C@@H](C4)C[C@@H](O)[C@@H]4[C@@H]5C[C@H](O)[C@]5(C)[C@@H]([C@H](C)CCC(=O)O)CC[C@@H]45)cc3)C[C@@]21C [Example 4, (3β,5β,7α,12α)-7,12-Dihydroxy-3-{2-[{4-[17β-hydroxy-16α-methyl-3-oxo17α-prop-1-ynylestra-4,9-dien-11β-yl]phenyl}(methyl)amino]ethoxy}cholan-24-oic acid] |  |  |  |  |  |  | 1.6 | IC50 ([1]; 3(H)-dex displacement, hGR extract from Sf9 cells, read-out: GR Binding (IC50)): 3.3 nM
